Reference: the supplement of paper PMC10307832

Experiments:
Test in all cases: relative viability (nuclei count vs DMSO), 5 days (fraction); higher = more cells survive
Vismodegib + AZD7762 = compound: CS(=O)(=O)c1ccc(C(=O)Nc2ccc(Cl)c(-c3ccccn3)c2)c(Cl)c1 [Vismodegib] + NC(=O)Nc1cc(-c2cccc(F)c2)sc1C(=O)N[C@H]1CCCNC1 [AZD7762] (partner 0.2 µM)
Summary of the method: (§1)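 Relative viability equals treated-well nuclei counts divided by vehicle-well nuclei counts. Counts came from 4× images of lung cancer cell lines grown in 1536-well plates for 5 days after pin-tool dosing on the day after seeding. Dosing used one drug alone or a fixed anchor-drug dose plus five library-drug doses (not always all listed) in √10 steps, and values are medians of duplicate plates.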

VE-821 + Palbociclib = compound: CS(=O)(=O)c1ccc(-c2cnc(N)c(C(=O)Nc3ccccc3)n2)cc1 [VE-821] + CC(=O)c1c(C)c2cnc(Nc3ccc(N4CCNCC4)cn3)nc2n(C2CCCC2)c1=O [Palbociclib] (partner 0.5 µM)
Summary of the method: as §1

Vismodegib + OSI-027 = compound: CS(=O)(=O)c1ccc(C(=O)Nc2ccc(Cl)c(-c3ccccn3)c2)c(Cl)c1 [Vismodegib] + COc1cccc2cc(-c3nc([C@H]4CC[C@H](C(=O)O)CC4)n4ncnc(N)c34)[nH]c12 [OSI-027] (partner 0.5 µM)
Summary of the method: as §1

VE-821 + Dasatinib = compound: CS(=O)(=O)c1ccc(-c2cnc(N)c(C(=O)Nc3ccccc3)n2)cc1 [VE-821] + Cc1nc(Nc2ncc(C(=O)Nc3c(C)cccc3Cl)s2)cc(N2CCN(CCO)CC2)n1 [Dasatinib] (partner 0.075 µM)
Summary of the method: as §1

Cell Line | relative viability (Vismodegib + AZD7762; first compound 0.08 µM) | relative viability (Vismodegib + AZD7762; first compound 0.253 µM) | relative viability (Vismodegib + AZD7762; first compound 0.8 µM) | relative viability (Vismodegib + AZD7762; first compound 2.53 µM) | relative viability (Vismodegib + AZD7762; first compound 8 µM) | relative viability (VE-821 + Palbociclib; first compound 0.08 µM) | relative viability (VE-821 + Palbociclib; first compound 0.253 µM) | relative viability (VE-821 + Palbociclib; first compound 0.8 µM) | relative viability (VE-821 + Palbociclib; first compound 2.53 µM) | relative viability (VE-821 + Palbociclib; first compound 8 µM) | relative viability (Vismodegib + OSI-027; first compound 0.08 µM) | relative viability (Vismodegib + OSI-027; first compound 0.253 µM) | relative viability (Vismodegib + OSI-027; first compound 0.8 µM) | relative viability (Vismodegib + OSI-027; first compound 2.53 µM) | relative viability (Vismodegib + OSI-027; first compound 8 µM) | relative viability (VE-821 + Dasatinib; first compound 0.08 µM) | relative viability (VE-821 + Dasatinib; first compound 0.253 µM) | relative viability (VE-821 + Dasatinib; first compound 0.8 µM) | relative viability (VE-821 + Dasatinib; first compound 2.53 µM) | relative viability (VE-821 + Dasatinib; first compound 8 µM)
LOU-NH91 | 0.802 | 0.752 | 0.727 | 0.771 | 0.789 | 0.543 | 0.512 | 0.545 | 0.548 | 0.565 | 0.777 | 0.689 | 0.673 | 0.693 | 0.709 | 0.571 | 0.489 | 0.567 | 0.55 | 0.584
LU99A | 0.333 | 0.324 | 0.537 | 0.353 | 0.325 | 0.426 | 0.456 | 0.434 | 0.408 | 0.267 | 0.35 | 0.271 | 0.24 | 0.278 | 0.287 | 0.552 | 0.562 | 0.551 | 0.571 | 0.303
LXF-289 | 1.02 | 1.1 | 1.1 | 1.09 | 1.08 | 0.583 | 0.606 | 0.716 | 0.677 | 0.712 | 0.764 | 0.764 | 0.795 | 0.823 | 0.59 | 0.235 | 0.247 | 0.195 | 0.223 | 0.155
NCI-H23 | 0.264 | 0.34 | 0.276 | 0.23 | 0.232 | 0.562 | 0.49 | 0.466 | 0.352 | 0.274 | 0.745 | 0.742 | 0.599 | 0.464 | 0.438 | 0.881 | 0.746 | 0.78 | 0.603 | 0.283
NCI-H322M | 0.598 | 0.503 | 0.603 | 0.507 | 0.548 | 0.446 | 0.462 | 0.463 | 0.483 | 0.443 | 0.677 | 0.522 | 0.486 | 0.525 | 0.537 | 0.255 | 0.264 | 0.248 | 0.301 | 0.268
NCI-H358 | 0.529 | 0.57 | 0.664 | 0.477 | 0.611 | 0.13 | 0.14 | 0.134 | 0.135 | 0.133 | 0.775 | 0.711 | 0.8 | 0.807 | 0.853 | 0.157 | 0.156 | 0.183 | 0.209 | 0.213
NCI-H441 | 1.1 | – | 1.05 | 1.01 | 1.03 | 0.251 | 0.167 | 0.253 | 0.246 | 0.228 | 0.932 | 0.693 | 0.638 | 0.518 | 0.601 | 0.641 | 0.558 | 0.706 | 0.687 | 0.539
NCI-H460 | 0.583 | 0.56 | 0.576 | 0.535 | 0.724 | 0.203 | 0.166 | 0.159 | 0.0414 | 0.0344 | 0.644 | 0.603 | 0.684 | 0.622 | 0.559 | 0.58 | 0.488 | 0.428 | 0.261 | 0.223
NCI-H522 | 1.06 | 0.875 | 0.849 | 0.81 | 0.857 | 1.06 | 1.15 | 0.754 | 0.932 | 0.999 | 0.805 | 0.742 | 0.672 | 0.659 | 0.812 | 0.77 | 0.918 | 0.704 | 0.902 | 0.825
NCI-H647 | 0.474 | 0.482 | 0.415 | 0.375 | 0.51 | 0.385 | 0.297 | 0.349 | 0.371 | 0.15 | 0.665 | 0.605 | 0.671 | 0.486 | 0.579 | 0.232 | 0.168 | 0.152 | 0.194 | 0.122
NCI-H650 | 0.958 | 0.925 | 0.864 | 0.953 | 1.06 | 0.365 | 0.341 | 0.331 | 0.438 | 0.352 | 0.604 | 0.513 | 0.454 | 0.511 | 0.491 | 0.501 | 0.445 | 0.465 | 0.528 | 0.426
NCI-H727 | 0.594 | 0.691 | 0.677 | 0.448 | 0.661 | 0.737 | 0.726 | 0.618 | 0.638 | 0.659 | 0.57 | 0.451 | 0.446 | 0.528 | 0.655 | 0.457 | 0.334 | 0.374 | 0.32 | 0.317
NCI-H838 | 0.799 | 0.876 | 0.918 | 0.888 | 0.975 | 0.222 | 0.186 | 0.218 | 0.266 | 0.191 | 0.416 | 0.334 | 0.338 | 0.41 | 0.441 | 0.301 | 0.259 | – | 0.288 | 0.24
NCI-H1355 | 0.763 | 0.694 | 0.806 | 0.744 | 0.722 | 0.455 | 0.349 | 0.287 | 0.366 | 0.361 | 0.488 | 0.447 | 0.378 | 0.444 | 0.399 | 0.748 | 0.65 | 0.609 | 0.627 | 0.575
NCI-H1395 | 0.42 | 0.397 | 0.412 | 0.455 | 0.41 | 0.725 | 0.658 | 0.549 | 0.586 | 0.516 | 0.608 | 0.562 | 0.596 | 0.599 | 0.686 | 0.396 | 0.432 | 0.38 | 0.45 | 0.401
